Test [1] deals with Hep3B. As to the kind of experiment: MTT anti-proliferative assay, Hep3B. The format is cell-based. Conditions: Homo sapiens. The method, then:
The anti-proliferative activity of Formula I compounds are studied on HepG2 cells using MTT assay. Briefly, the cells (2.5×10^4/ml) are incubated in triplicate in a 96-well plate in the presence or absence of different concentrations of compounds in a final volume of 0.2 ml up to 72 hours at 37° C. Thereafter, 20 μl MTT solution (5 mg/ml in PBS) is added to each well. After 2 hours of incubation at 37° C., 0.1 ml lysis buffer (20% SDS, 50% dimethyl-formamide) is added; incubation is continued overnight at 37° C.; and the optical density (OD) at 570 nm is measured by Tecan plate reader.
Additionally, Compound 1 is tested on a panel of six cell lines including Hep3B, PLC/PRF5, AGS (gastric cancer cell line), DU145 (prostrate cancer cell line), MDA MB231 (breast cancer cell line) and CAL27 (head and neck cancer cell line) cells.
(In general: Tetrazolium dyes change colour on reduction, which living cells bring about.)

In test [2] the test system is phospho-STAT3 (Ser-727). In words: Western blot of phospho-STAT3 (Ser-727) in HepG2. The format is cell-based, human. Conditions: HepG2, 10 μMol/L CIMO. The method, then:
FIG. 2 depicts the suppression of phospho-STAT3 by compound 1 (CIMO) in a dose dependent manner [A]. HepG2 cells (5×10^5/mL) are treated with the indicated concentrations of CIMO for 6 hours, after which whole-cell extracts are prepared and resolved on SDS-PAGE gel, electrotransferred onto nitrocellulose membrane, and probed for phospho-STAT3. The same blot is stripped and reprobed with STAT3 antibody to verify equal protein loading. […] HepG2 cells (5×10^5/mL) are treated with the indicated concentrations of AG490 for about 6 hours, after which Western Blotting is done as described for [A]. [C] depicts the suppression of phospho-STAT3 levels by Compound 1 (CIMO) in a time-dependent manner. HepG2 cells (5×10^5/mL) are treated with 10 μMol/L CIMO for the indicated times, after which Western blotting is done as described for [A]. [D] depicts that compound 1 (CIMO) has no effect on phospho-STAT3 (Ser-727) and STAT3 protein expression. […] HepG2 cells (1×10^5/mL) are incubated with or without 10 μMol/L CIMO for about 6 hours and then analyzed for the intracellular distribution of STAT3 by immunocytochemistry. The same slides are counterstained for nuclei with Hoechst (50 ng/mL) for about 5 minutes and analyzed under an fluorescencemicroscope. […]
A general note: In western blotting, separated proteins are transferred to a membrane and probed.

For test [3], the system named is SHP-1, SHPTP-2, PTP1B. As to the kind of experiment: Western blot of tyrosine phosphatase expression. The format is cell-based, human. Conditions: HepG2, CIMO up to 4 hours.

We go through one molecule from patent US9604974B2, “Compounds as modulator of JAK-STAT pathway, methods and applications thereof” (UNIVERSITY OF MYSORE, priority 2015, dated 2017).

pIC50: −log10 of the molar value.

In test [1], `COc1ccc(C2CNC(c3cn(Cc4ccc(-c5ccccc5C#N)cc4)c4ccccc34)OC23CCCCC3)cc1` (stereo not drawn) [Compound 1] had a pIC50 of 4.33. Besides, the “phosphorylation of S727 of STAT3” value in test [2] was “no effect”. The “levels of SHP-1, SHPTP-2, PTP1B” value in test [3] is given as “no change”.

By pIC50 is commonly meant −log10 of the IC50, conventionally taken in molar units. Lower therefore signals a high IC50.
